The results in this text go back to ChEMBL document CHEMBL5032521, “Design, synthesis and anti-tumor evaluation of 1,2,4-triazol-3-one derivatives and pyridazinone derivatives as novel CXCR2 antagonists” (Eur J Med Chem, 2021).

Calls of active or inactive are those of the source. The rule behind the calls is not given here.

Assay [1] concerns the target T1, C-X-C chemokine receptor type 2 (Homo sapiens) (UniProt P25025).
T1 sequence (whole entry): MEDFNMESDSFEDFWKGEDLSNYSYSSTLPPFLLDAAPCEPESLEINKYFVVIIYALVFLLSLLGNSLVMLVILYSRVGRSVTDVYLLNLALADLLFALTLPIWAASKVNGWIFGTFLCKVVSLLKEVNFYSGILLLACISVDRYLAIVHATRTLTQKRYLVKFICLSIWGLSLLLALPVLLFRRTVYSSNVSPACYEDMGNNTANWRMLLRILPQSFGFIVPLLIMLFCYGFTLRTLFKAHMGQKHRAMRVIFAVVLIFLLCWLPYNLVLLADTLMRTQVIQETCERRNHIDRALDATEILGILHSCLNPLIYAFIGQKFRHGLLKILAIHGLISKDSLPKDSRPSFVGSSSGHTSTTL
Nature of the assay: Antagonist activity at CXCR2 (unknown origin) at 10 uM by calcium flux assay relative to control. The format is functional. On the technique in general: Calcium assays in cells follow changes in intracellular calcium, usually with a dye or a luminescent sensor.

Assay [2] concerns MDA-MB-231. Kind of assay: Inhibition of epithelial-mesenchymal transition in human MDA-MB-231 cells assessed as downregulation of vimentin expression at 10 uM measured after 24 hrs by Western blot assay. The format is functional, cell-based. A general note: A western blot detects proteins with antibodies after separation by electrophoresis.
In assay [3] the test system is HUVEC. Nature of the assay: Anti-angiogenesis activity in HUVEC cells assessed as reduction in blood vessel area at 2 uM measured after 12 hrs by inverted microscopic analysis relative to control. More on the design: scale not given: the % may be the effect or the level left. The format is functional, Homo sapiens.
Assay [4] concerns MDA-MB-231. Kind of assay: Antimigratory activity against human MDA-MB-231 cells assessed as reduction in cell migration at 2 uM measured after 24 hrs by crystal violet staining based transwell assay relative to control. The format is functional. Details: scale not given: the % may be the effect or the level left.
In assay [5] the test system is HUVEC. Kind of assay: Down-regulation of VEGF expression in HUVEC cells assessed as 10 uM measured after 24 hrs by Western blot assay. The format is functional, cell-based. As to conditions: Homo sapiens.
Assay [6] concerns MDA-MB-231. Kind of assay: Inhibition of epithelial-mesenchymal transition in human MDA-MB-231 cells assessed as downregulation of beta-catenin expression at 10 uM measured after 24 hrs by Western blot assay. The format is functional, cell-based.
The subject of assay [7] is MDA-MB-231. Kind of assay: Inhibition of epithelial-mesenchymal transition in human MDA-MB-231 cells assessed as downregulation of fibronectin expression at 10 uM measured after 24 hrs by Western blot assay. The format is functional, cell-based.
In assay [8] the test system is MDA-MB-231. Nature of the assay: Inhibition of epithelial-mesenchymal transition in human MDA-MB-231 cells assessed as upregulation of E-cadherin expression at 10 uM measured after 24 hrs by Western blot assay. The format is functional, cell-based.
Assay [9] concerns MDA-MB-231. Kind of assay: Induction of ROS production in human MDA-MB-231 cells assessed as increase in mean fluorescence intensity at 10 uM measured after 24 hrs by DCFH-DA staining based inverted microscopic analysis. The format is functional, cell-based.
Assay [10] deals with MDA-MB-231. Kind of assay: Antimigratory activity against human MDA-MB-231 cells assessed as reduction in cell migration at 2 uM measured after 24 hrs by wound healing assay relative to control. More on the design: scale not given: the % may be the effect or the level left. The format is functional.
For another assay, the system named is Caco-2. Nature of the assay: Cytotoxicity against human Caco2 cells. The format is functional, cell-based.
In assay [11] the test system is MDA-MB-231. Kind of assay: Antiproliferative activity against human MDA-MB-231 cells assessed as reduction in cell viability measured after 72 hrs by MTT assay. The format is functional, cell-based. As to conditions: MDA-MB-231, 72 h. For orientation: Tetrazolium assays rely on reduction of a dye to a coloured formazan, in cell work by metabolically active cells.

Assay [12] concerns MDA-MB-231. Kind of assay: Inhibition of PI3K signalling in human MDA-MB-231 cells assessed as decrease in AKT phosphorylation at 5 to 10 uM measured after 24 hrs by Western blot assay. The format is cell-based. As to conditions: dose 5-10 µM.
Assay [13] concerns MDA-MB-231. Kind of assay: Synergistic antiproliferative activity against human MDA-MB-231 cells assessed as inhibition of cell growth at 10 uM incubated for 72 hrs in presence of Sorafenib by MTT assay. The format is functional, cell-based. The following applies: MDA-MB-231, 72 h.
The subject of assay [14] is MDA-MB-231. Kind of assay: Inhibition of PI3K signalling in human MDA-MB-231 cells assessed as decrease in PI3K phosphorylation at 5 to 10 uM measured after 24 hrs by Western blot assay. The following applies: dose 5-10 µM. The format is cell-based.
Assay [15] deals with MDA-MB-231. Kind of assay: Synergistic antiproliferative activity against human MDA-MB-231 cells assessed as inhibition of cell growth at 25 uM incubated for 72 hrs in presence of Sorafenib by MTT assay. The format is functional, cell-based. The following applies: MDA-MB-231, 72 h.

Take `Cc1cc(=O)n(-c2ccccc2)nc1C(=O)Nc1cccc(C(=O)N(C)C)c1O`: the inhibition in assay [1] was 3.2%.

Regarding `CN(C)C(=O)c1cccc(NC(=O)c2nn(-c3ccc(Cl)cc3)c(=O)n2C)c1O`, the inhibition in [1] came out at 27.2%.

Turning to `COc1ccc(-n2nc(C(=O)Nc3cccc(C(=O)N(C)C)c3O)c(C)cc2=O)cc1`, the inhibition in [1] turned out to be 34.6%.

As for `CN(C)C(=O)c1cccc(NC(=O)c2nn(-c3ccc(Cl)cc3Cl)c(=O)n2C)c1O`, in assay [1], the inhibition turned out to be 26.6%.

Regarding `Cc1ccccc1-n1nc(C(=O)Nc2cccc(C(=O)N(C)C)c2O)c(C)cc1=O`, in [1], the inhibition was 6.1%.

In the case of `CN(C)C(=O)c1cccc(NC(=O)c2nn(-c3ccc(Cl)c(Cl)c3)c(=O)n2C)c1O`, the inhibition in assay [1] was found to be 32.3%.

In the case of `C#Cc1ccc(-n2nc(C(=O)Nc3cccc(C(=O)N(C)C)c3O)c(C)cc2=O)cc1`, the inhibition in [1] came out at 1.5%.

Take `Cc1cc(=O)n(-c2ccc(Cl)c(Cl)c2)nc1C(=O)Nc1cccc(C(=O)N(C)C)c1O`: in assay [1], the inhibition was determined as 10.9%.

As to `O=C(Nc1ccc([N+](=O)[O-])cc1O)Nc1ccccc1Br`, the inhibition entry with MDA-MB-231 [2], in the assay on MDA-MB-231 [6], with MDA-MB-231 [7] and with MDA-MB-231 [8] was “Active” in each case. Also, the Activity was 55.2% in the assay on HUVEC [3], 44% with MDA-MB-231 [4] and 52.3% with MDA-MB-231 [10]. In addition, the outcome in the assay with HUVEC [5] was inactive. For the same compound, in the assay with MDA-MB-231 [9], the outcome was Active.

In the assay on Caco-2, `CC[C@@H](Nc1c(Nc2cccc(C(=O)N(C)C)c2O)c(=O)c1=O)c1ccc(C)o1` [NAVARIXIN ANHYDROUS] came in with an IC50 of 18.8 µM.

`CN(C)C(=O)c1cccc(NC(=O)c2nn(-c3ccc(C(C)(C)C)cc3)c(=O)n2C)c1O`: the inhibition in [1] (filed as antagonist) was 40.9%.

Turning to `Cc1cc(=O)n(-c2ccc(F)cc2)nc1C(=O)Nc1cccc(C(=O)N(C)C)c1O`, the inhibition in assay [1] was -0.8%.

As to `Cc1ccc(-n2nc(C(=O)Nc3cccc(C(=O)N(C)C)c3O)n(C)c2=O)cc1`, the inhibition in [1] came out at 24.3%.

In the case of `CN(C)C(=O)c1cccc(NC(=O)c2nn(-c3ccccc3)c(=O)n2C)c1O`, in [1], the inhibition came to 18.6%.

Regarding `CNC(=O)c1cc(Oc2ccc(NC(=O)Nc3ccc(Cl)c(C(F)(F)F)c3)cc2)ccn1` [SORAFENIB], the IC50 in the assay on MDA-MB-231 [11] was determined as 8.52 µM.

Regarding `Cc1cccc(-n2nc(C(=O)Nc3cccc(C(=O)N(C)C)c3O)n(C)c2=O)c1`, the inhibition in assay [1] (filed as antagonist) was 43.8%.

Consider `C#Cc1ccc(-n2nc(C(=O)Nc3cccc(C(=O)N(C)C)c3O)n(C)c2=O)cc1`, for which the inhibition in assay [1] (filed as antagonist) was 49.2%.

On to `Cc1ccccc1-n1nc(C(=O)Nc2cccc(C(=O)N(C)C)c2O)n(C)c1=O`, for which, in [1] (filed as antagonist), the inhibition was found to be 43.8%.

Regarding `Cc1cc(=O)n(-c2ccc(C(F)(F)F)cc2)nc1C(=O)Nc1cccc(C(=O)N(C)C)c1O`, the inhibition entry with MDA-MB-231 [2], with MDA-MB-231 [6], with MDA-MB-231 [12], in the assay on MDA-MB-231 [7], in the assay with MDA-MB-231 [14] and in the assay with MDA-MB-231 [8] was “Active” in each case. Also, the results for the Activity in the assay on HUVEC [3], in the assay with MDA-MB-231 [4] and in the assay on MDA-MB-231 [10] were 59.2%, 49.7% and 52%, respectively. Moreover, the outcome in the assay with HUVEC [5] and in the assay with MDA-MB-231 [9] was Active. Moreover, the IC50 is > 25 µM in the assay with MDA-MB-231 [11], 5.93 µM in the assay with MDA-MB-231 [13] and 2.96 µM in the assay with MDA-MB-231 [15]. For the same compound, the inhibition in assay [1] (filed as antagonist) amounted to 69.4%.

Turning to `Cc1cccc(-n2nc(C(=O)Nc3cccc(C(=O)N(C)C)c3O)c(C)cc2=O)c1`, the inhibition in assay [1] worked out at 11.2%.

`Cc1cc(=O)n(-c2ccc(C(C)(C)C)cc2)nc1C(=O)Nc1cccc(C(=O)N(C)C)c1O`: the inhibition in assay [1] worked out at 20.4%.

As to `CN(C)C(=O)c1cccc(NC(=O)c2nn(-c3ccc(C(F)(F)F)cc3)c(=O)n2C)c1O`, in assay [1], the inhibition is 21.6%.

On to `CN(C)C(=O)c1cccc(NC(=O)c2nn(-c3ccc(F)cc3)c(=O)n2C)c1O`, for which, in assay [1], the inhibition was found to be 12.7%.

With `Cc1cc(=O)n(-c2ccc(Cl)cc2Cl)nc1C(=O)Nc1cccc(C(=O)N(C)C)c1O`, the inhibition in assay [1] was -8.2%.

Turning to `Cc1ccc(-n2nc(C(=O)Nc3cccc(C(=O)N(C)C)c3O)c(C)cc2=O)cc1`, the inhibition in [1] came out at 26.9%.

One may read the inhibition as the change of the read-out against control, counted positive when it falls. As usually defined, the IC50 is the concentration at which inhibition is half-maximal.
